Here are results for 4 compounds from patent US10065990B2, “Cyclic peptide compound, and preparation method, pharmaceutical composition and use thereof” (HANGZHOU GUANYU BIO-MEDICAL CO., LTD, priority 2013, dated 2018).

Read-outs that look alike come from different tables or passages of the source.

One experiment deals with T1, HDAC7 (Homo sapiens, UniProt Q8WUI4).
T1 sequence (Q8WUI4 1-952): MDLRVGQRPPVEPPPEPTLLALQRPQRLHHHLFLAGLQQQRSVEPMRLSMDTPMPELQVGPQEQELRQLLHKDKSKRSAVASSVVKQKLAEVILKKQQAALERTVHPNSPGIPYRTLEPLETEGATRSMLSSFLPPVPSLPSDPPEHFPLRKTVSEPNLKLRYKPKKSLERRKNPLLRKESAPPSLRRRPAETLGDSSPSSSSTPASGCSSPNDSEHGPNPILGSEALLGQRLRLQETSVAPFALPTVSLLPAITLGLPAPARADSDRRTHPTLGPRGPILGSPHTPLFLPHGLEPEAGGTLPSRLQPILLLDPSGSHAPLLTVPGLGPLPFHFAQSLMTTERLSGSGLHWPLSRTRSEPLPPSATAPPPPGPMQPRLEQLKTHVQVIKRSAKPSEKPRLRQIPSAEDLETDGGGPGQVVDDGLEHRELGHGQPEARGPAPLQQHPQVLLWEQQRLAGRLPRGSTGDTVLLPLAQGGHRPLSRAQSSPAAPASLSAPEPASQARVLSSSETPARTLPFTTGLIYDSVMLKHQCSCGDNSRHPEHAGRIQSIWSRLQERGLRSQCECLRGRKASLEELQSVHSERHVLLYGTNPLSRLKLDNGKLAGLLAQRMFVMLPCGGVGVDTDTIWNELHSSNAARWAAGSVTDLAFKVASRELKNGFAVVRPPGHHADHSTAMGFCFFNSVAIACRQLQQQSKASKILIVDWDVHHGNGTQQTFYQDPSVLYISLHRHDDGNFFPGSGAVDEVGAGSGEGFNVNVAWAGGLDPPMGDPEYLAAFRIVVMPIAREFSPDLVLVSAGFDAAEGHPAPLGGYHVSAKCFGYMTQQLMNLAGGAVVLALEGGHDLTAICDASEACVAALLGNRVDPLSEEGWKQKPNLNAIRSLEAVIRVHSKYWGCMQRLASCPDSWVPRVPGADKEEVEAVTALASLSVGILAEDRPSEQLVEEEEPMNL
The experiment can be described thus: HDAC biochemical activity measurement (fluorescent substrate deacetylation).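 Note: fluorogenic deacetylation assay using acetyl-lysine substrate at 20 µM, enzyme and compound incubated 30 min at 37 °C, then developer added, fluorescence read at 360/460 nm.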 Conditions: HDAC7; 37° C. 30 minutes.

The subject of experiment [1] is K562 (human leukemia cells). The experiment can be described thus: MTT cancer cell growth inhibition. In kind it is cell-based. Conditions: Homo sapiens, K562, 72 h, MTT, 72 hours incubation, K562 cells; read-out: GI50 K562. A digest of the protocol: (§1)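 GI50 values come from MTT viability: after 72 h compound exposure (final 10^−5–10^−10 M, three wells each) of cells plated overnight at 1500/well in 10% FBS medium, MTT was given for 4 h. The DMSO-solubilised formazan was then measured at 570 nm.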

Experiment [2] concerns SGC-7901 (human gastric cancer cells). The experiment can be described thus: MTT cancer cell growth inhibition. It counts as cell-based. The settings on record: Homo sapiens, SGC-7901, 72 h, MTT, 72 hours incubation, SGC-7901 cells; read-out: GI50 SGC-7901. In a few lines: as §1
In experiment [3] the test system is Bel-7402 (human hepatoma cells). The experiment can be described thus: MTT cancer cell growth inhibition. In kind it is cell-based. The settings on record: Homo sapiens, Bel-7402, 72 h, MTT, 72 hours incubation, Bel-7402 cells; read-out: GI50 Bel-7402. In a few lines: as §1
The test system of experiment [4] is DU145 (human prostate cancer cells). The experiment can be described thus: MTT cancer cell growth inhibition. In kind it is cell-based. The settings on record: Homo sapiens, DU-145, 72 h, MTT, 72 hours incubation, read-out: GI50 Du1. A digest of the protocol:
as §1

Experiment [5] has as its system KBM-5 (human chronic myelogenous leukemia). The experiment can be described thus: MTT cancer cell growth inhibition. It counts as cell-based. Conditions: Homo sapiens, KBM5, 72 h, MTT, 72 hours incubation, KBM-5 cells; read-out: GI50 KBM-5. A digest of the protocol: as §1
The subject of experiment [6] is PANC-1 (Pac-1, human pancreatic cancer cells). The experiment can be described thus: MTT cancer cell growth inhibition. It counts as cell-based. Conditions: Homo sapiens, PANC-1, 72 h, MTT, 72 hours incubation, read-out: GI50 PAN. In a few lines:
as §1

Experiment [7] deals with H1975 (non-small cell lung adenocarcinoma). The experiment can be described thus: MTT cancer cell growth inhibition. In kind it is cell-based. The settings on record: Homo sapiens, NCI-H1975, 72 h, MTT, 72 hours incubation, H1975 cells; read-out: GI50 H1975. A digest of the protocol:
as §1

Experiment [8] deals with U937 (human leukemia cells). The experiment can be described thus: MTT cancer cell growth inhibition. It counts as cell-based. Conditions: Homo sapiens, U-937, 72 h, MTT, 72 hours incubation, read-out: GI50 U93. In a few lines:
as §1

Experiment [9] has as its system lncap (prostate cancer cells). The experiment can be described thus: MTT cancer cell growth inhibition. In kind it is cell-based. Conditions: Homo sapiens, LNCaP, 72 h, MTT, 72 hours incubation, read-out: GI50 lnca. In a few lines: as §1
Experiment [10] deals with KBM5-T315I (human chronic myelogenous leukemia). The experiment can be described thus: MTT cancer cell growth inhibition. It counts as cell-based. Conditions: Homo sapiens, 72 h, MTT, 72 hours incubation, KBM5-T315I cells; read-out: GI50 KBM5-T315I. In a few lines: as §1
For experiment [11], the system named is MOLT-4 (human acute lymphoblastic leukemia cells). The experiment can be described thus: MTT cancer cell growth inhibition. It counts as cell-based. The settings on record: Homo sapiens, MOLT-4, 72 h, MTT, 72 hours incubation, read-out: GI50 Mol. A digest of the protocol: as §1
For experiment [12], the system named is Hela (human cervical cancer cells). The experiment can be described thus: MTT cancer cell growth inhibition. It counts as cell-based. Conditions: Homo sapiens, HeLa, 72 h, MTT, 72 hours incubation, read-out: GI50 Hela. A digest of the protocol: as §1
For experiment [13], the system named is MCF-7 (human breast cancer cells). The experiment can be described thus: MTT cancer cell growth inhibition. In kind it is cell-based. The settings on record: Homo sapiens, MCF7, 72 h, 72 hours incubation, read-out: GI50 MCF. In a few lines: as §1
In experiment [14] the test system is N-87 (human gastric cancer cells). The experiment can be described thus: MTT cancer cell growth inhibition. In kind it is cell-based. Conditions: Homo sapiens, 72 h, MTT, 72 hours incubation, N-87 cells; read-out: GI50 N-87. In a few lines: as §1
Experiment [15] deals with HT1080 (human fibrosarcoma cells). The experiment can be described thus: MTT cancer cell growth inhibition. In kind it is cell-based. Conditions: Homo sapiens, HT-1080, 72 h, MTT, 72 hours incubation, read-out: GI50 HT1. In a few lines:
as §1

Experiment [16] concerns Huh-7 (human hepatoma cells). The experiment can be described thus: MTT cancer cell growth inhibition. It counts as cell-based. Conditions: Homo sapiens, Huh-7, 72 h, MTT, 72 hours incubation, Huh-7 cells; read-out: GI50 Huh-7. A digest of the protocol: as §1
Experiment [17] has as its system MDA-MB-231 (breast cancer cells). The experiment can be described thus: MTT cancer cell growth inhibition. Conditions: Homo sapiens, MDA-MB-231, 72 h, read-out: GI50 MDA-MB-231, MTT, 72 hours incubation, MDA-MB-231 cells. It counts as cell-based. In a few lines: as §1
Experiment [18] concerns A549 (human lung cancer cells). The experiment can be described thus: MTT cancer cell growth inhibition. It counts as cell-based. Conditions: Homo sapiens, A549, 72 h, MTT, 72 hours incubation, read-out: GI50 A54. In a few lines: as §1
For experiment [19], the system named is HCC827 (human non-small cell lung cancer cells). The experiment can be described thus: MTT cancer cell growth inhibition. In kind it is cell-based. The settings on record: Homo sapiens, HCC827, 72 h, MTT, 72 hours incubation, HCC827 cells; read-out: GI50 HCC827. A digest of the protocol:
as §1

For experiment [20], the system named is BGC-823 (human gastric cancer cells). The experiment can be described thus: MTT cancer cell growth inhibition. It counts as cell-based. The settings on record: Homo sapiens, BGC-823, 72 h, MTT, 72 hours incubation, read-out: GI50 BG. A digest of the protocol:
as §1

Procedure for HDAC7: The chemical activity of the compound is determined according to the degree of deacetylation inhibition of the HDAC enzyme. This experiment measured the degree of deacetylation related to tumor proliferation and metastasis of HDAC1, HDAC2, HDAC3, HDAC8, HDAC11 five subtypes HDAC enzymes. After the substrate containing an acetylated lysine side chain and HDAC enzyme are labeled with a fluorescent label, the fluorescent substrate is de acetyl. The fluorescent labeled substrate is cleaved by the enzyme, and the fluorescent substance is released, which generates 460 nm emission light under the excitation of 360 nm light.
HDAC substrate was diluted with reaction buffer to 200M (reaction concentration of 20M), the HDAC enzyme was diluted to the appropriate concentration, then added different concentrations of the test compounds and acted at 37° C. 30 minutes, and then added the same volume of 2-times concentration substrate developing solution (developer), incubated at room temperature for 15 minutes. Finally, the last reading measured with a microplate plate reader, excitation light was 360 nm, the emitted light was 460 nm, data processing software was Prime 4, and the results are shown in Table 1.

Take `C/C=C1\NC(=O)c2nc(ccc2F)CNC(=O)C[C@@H](/C=C/CCSC(=O)CCCCCCC)OC(=O)[C@H](Cc2ccccc2)NC1=O` [Example 69]: the “IC50 HDAC7” value against HDAC7 is “no activity”. Besides, the GI50 (commonly the concentration that inhibits growth by half) turned out to be 41 nM in [1]; 36 nM in experiment [2]; 74 nM in experiment [3]; 40 nM in [4]; 81 nM in [5]; 70 nM in experiment [6]. For the same compound, the 50% growth inhibitory concentration (GI50) in [7] amounted to 43 nM; in experiment [8], 40 nM; in [9] it was 30 nM; in experiment [10] it was 29 nM; in [11] it was 30 nM; in [12] it was 80 nM. Also, the 50% growth inhibitory concentration (GI50) in [13] worked out at 20 nM; in [14], 52 nM; in [15] it was 70 nM; in experiment [16], 35 nM; in experiment [17], 35 nM; in experiment [18], 30 nM. Also, the GI50 came to 74 nM in [19] and 50 nM in [20].

As to `CSc1cc2nc(c1)C(=O)NC(=C(C)C)C(=O)N[C@@H](C(C)C)C(=O)O[C@H](/C=C/CCSC(C)=O)CC(=O)NC2` [Compound 208], at HDAC7, the “IC50 HDAC7” value is on record as “no activity”. The GI50 is 76 nM in experiment [1]; 26 nM in experiment [2]; 17 nM in [3]; 40 nM in [4] (DU145 cells); 18 nM in [5]; 30 nM in [6] (PANC-1 cells). The 50% growth inhibitory concentration (GI50) was 35 nM in experiment [7]; 60 nM in [8] (U937 cells); 30 nM in [9] (lncap cells); 49 nM in experiment [10]; 40 nM in experiment [11] (MOLT-4 cells); 80 nM in experiment [12] (Hela cells). In addition, the concentration for 50% growth inhibition (GI50) stood at 30 nM in [13] (MCF-7 cells); 56 nM in experiment [14]; 70 nM in [15] (HT1080 cells); 26 nM in [16]; 18 nM in experiment [17]; 50 nM in experiment [18] (A549 cells). Moreover, the GI50 came to 67 nM in experiment [19] and 50 nM in [20] (BGC-823 cells).

For the compound `C/C=C1\NC(=O)c2ccc(SC)c(n2)CNC(=O)C[C@@H](/C=C/CCSC(=O)CCCCCC)OC(=O)[C@H](C(C)C)NC1=O` [Compound 152], on HDAC7, the “IC50 HDAC7” value is listed as “no activity”. Besides, the GI50 was found to be 11 nM in [1]; 23 nM in [2]; 47 nM in experiment [3]; 60 nM in experiment [4] (DU145 cells); 41 nM in [5]; 50 nM in experiment [6] (PANC-1 cells). Moreover, the 50% growth inhibitory concentration (GI50) in experiment [7] was 38 nM; in experiment [8] (U937 cells), 50 nM; in [9] (lncap cells), 60 nM; in experiment [10], 29 nM; in experiment [11] (MOLT-4 cells), 90 nM; in experiment [12] (Hela cells), 60 nM. Moreover, the 50% growth inhibitory concentration (GI50) in experiment [13] (MCF-7 cells) turned out to be 60 nM; in experiment [14], 35 nM; in [15] (HT1080 cells) it was 90 nM; in [16], 28 nM; in experiment [17], 65 nM; in experiment [18] (A549 cells), 50 nM. The 50% growth inhibitory concentration (GI50) turned out to be 35 nM in experiment [19] and 50 nM in [20] (BGC-823 cells).

Take `C/C=C1\NC(=O)c2nccc(n2)CNC(=O)C[C@@H](/C=C/CCS)OC(=O)[C@H](C(C)C)NC1=O` [Compound 143]: on HDAC7, the “IC50 HDAC7” value was “no activity”. Moreover, the concentration for 50% growth inhibition (GI50) came to 53 nM in [1]; 63 nM in experiment [2]; 42 nM in experiment [3]; 70 nM in [4]; 36 nM in [5]; 80 nM in [6]. For the same compound, the GI50 in experiment [7] worked out at 49 nM; in experiment [8] it was 80 nM; in experiment [9] it was 60 nM; in [10], 34 nM; in experiment [11], 90 nM; in [12], 60 nM. The GI50 amounted to 70 nM in experiment [13]; 32 nM in experiment [14]; 90 nM in [15]; 75 nM in [16]; 25 nM in experiment [17]; 80 nM in experiment [18]. In addition, the GI50 came out at 73 nM in experiment [19] and 80 nM in [20].
